Results from patent US20180344748A1, “METHODS AND COMPOSITIONS FOR PREVENTING OR TREATING CHRONIC INFLAMMATORY DISEASES” (ENTERIN LABORATORIES, INC., priority 2017, published 2018).

Key:
Type in all cases: cell-based
[1] = test system: human monocyte derived dendritic cells; test: Dendritic cell maturation, flow cytometry of surface markers; conditions: 10 μM, 48 h, FIG. 4
Experimental: FIG. 4: Human monocyte derived dendritic cells were incubated at 5×10^5/ml in the presence of recombinant monomeric or aggregated alpha-synuclein, and the NAc 1-21 amino terminal peptide of alpha-synuclein (each at a final concentration of 10 μM) for 48 h before they were immunostained and analyzed by flow cytometry for the expression of the indicated surface molecules. E. coli lipopolysaccharide (LPS) (100 ng/ml) was included as a positive control. Shown are the results of one experiment representative of three. The ordinate of […].
Chemotaxis assays followed published procedures. De et al. (2000). Neutrophils and monocytes were isolated from the blood of healthy human donors as described. Id. Recombinant human α-synuclein (lot #20162050, endotoxin contamination 18.6 EU/mg) was from Proteos, Inc. via the Michael J. Fox Foundation. The α-synuclein aggregates were made following a protocol provided by Proteos. […]
Human monocyte derived dendritic cells were exposed for 2 days to α-synuclein monomer, aggregate, and N—Ac 1-21 peptide and then analyzed by flow cytometry to measure the extent of phenotypic maturation, using CD80, CD83, CD86, HLA-ABC, and HLA-DR as determinants (FIG. 4).

[2] = test system: human neutrophils; test: Chemotaxis assay, human neutrophils; conditions: bell shaped concentration curve; FIG. 3A
Experimental: (§1) FIGS. 3A-F: α-Synuclein is a chemoattractant dependent on CD11b. Assays were conducted as described in the examples below. The average of 3 independent assays for each sample is presented. The concentration of the α-synuclein aggregate is in terms of the monomer. A positive control, FMLP, is noted in black. NAc 1-21, the N-acetylated peptide corresponding to the first 21 amino acids of α-synuclein; 1-25, a peptide corresponding to the first 25 amino acids. FIG. 3A=Human Neutrophils; FIG. 3B=Human monocytes; FIGS. 3C and 3D=Representative photos of the cellular response. FIG. 3E=Neutrophils from CD11b −/− or wild type mice (0.5×10^6/ml), assayed as described in the examples. FIG. 3F=Human neutrophils incubated in the presence of anti-CD11b antibody or control (50 μg/ml each). CM, control media (negative control)
(§2) Chemotaxis, or the movement of cells in response to a chemical stimulus, is routinely measured in a Boyden chamber. In this apparatus, immune cells are attached to one side of a membrane containing pores through which the immune cells can traffic. On the other side of the membrane a chemoattractant is introduced. Over the course of several hours the immune cells migrate from the side of the membrane on which they were initially placed to the side exposed to the chemoattractant. […] After 24 hours the number of immune cells that have migrated to towards the chemoattractant are counted. […]

[3] = test system: human monocytes; test: Chemotaxis assay, human monocytes; conditions: bell shaped concentration curve; FIG. 3B
Experimental: as §1, §2

Substance: N-acetylated peptide: the N-acetylated peptide corresponding to the first 21 amino acids of α-synuclein
- dendritic cell maturation (CD80, CD83, CD86, HLA-ABC, HLA-DR) [1]: did not
- chemotactic activity towards human neutrophils [2]: retained the chemotactic activity of the full-length protein
- chemotactic activity towards human monocytes [3]: retained the chemotactic activity of the full-length protein

Substance: peptide, extending to residue 25: a peptide corresponding to the first 25 amino acids of α-synuclein, lacking the N-acetyl moiety
- chemotactic activity towards human neutrophils [2]: inactive
- chemotactic activity towards human monocytes [3]: inactive
